These results are taken from ChEMBL document CHEMBL3507680, “University of Dundee, Gates Library screen for HepG2 cell viability”.

A short description of this data set: Human HepG2 cell viability assay in 384 well format. The data set is classed as toxicity, cell-based. Set-up: dose 125 nL, time 70.5 hour; concentration not given beside the values. To be noted: HepG2 cells, read-out: Inhibition.
As to `CN(CCc1ccccc1)C(=O)CN1C(=O)OC[C@@H]1c1ccccc1`, the cytotoxicity at 70.5 h worked out at 23.5%. As to `Cn1nc(C(=O)N2CCOCC2)c2c1CN(CC1CC1)C2`, the cytotoxicity at 70.5 h is -3.11%.

`CCn1c(C)cc(C(=O)NCc2ccc(CS(C)(=O)=O)cc2)c1C`: the cytotoxicity at 70.5 h is -7.81%. For `Cc1nnc([C@@H]2CCO[C@@H]3CCN(C(=O)Cc4ccccn4)C[C@@H]32)o1`, the cytotoxicity at 70.5 h is -0.42%. For the compound `CCc1n[nH]c(C2CN(C(=O)c3cscn3)CCO2)n1` (stereo not drawn), the cytotoxicity at 70.5 h stood at 43%.

For `Cc1cc(C)cc(CN2CCN(C(=O)CCc3n[nH]c(C)n3)CC2=O)c1`, the cytotoxicity at 70.5 h came out at 22.5%. Regarding `Cc1ncc(S(C)(=O)=O)c(N2Cc3ccccc3C2)n1`, the cytotoxicity at 70.5 h was found to be 2.76%. To `COc1cc(CN2CCC3(CC(Nc4ccncn4)C3)C2)cc(OC)c1` (stereo not drawn) belongs 0.186%; to `Cc1c[nH]c(CN(C)C(C(=O)O)c2c(F)cccc2OC(C)C)n1` (stereo not drawn), 1.64%; to `CCOc1ccc(C(=O)CCC(=O)NCc2cncn2CC)cc1C`, 40.5%.

Turning to `Cc1cnn(CC2CCCN2Cc2nnc(Cc3ccccc3)o2)c1` (stereo not drawn), the cytotoxicity at 70.5 h worked out at 8%. Consider `CNc1cc(CCNC(=O)C2CCCC2)nc(-c2ccccn2)n1`, for which the cytotoxicity at 70.5 h is -8.09%. For the compound `CN(C)C(=O)CN1CCC2(COCc3cnc(N4CCOCC4)nc32)C1` (stereo not drawn), the cytotoxicity at 70.5 h worked out at 19.8%. Regarding `COCCN1CCC(C)(c2cc(O)[nH]n2)CC1`, the cytotoxicity at 70.5 h is -3.06%. In the case of `Cc1ccc(CCNC(=O)CC2COCCN2S(=O)(=O)N(C)C)o1` (stereo not drawn) it was 13.5%; in that of `CCC(CC)c1nnc(NC(=O)N2CCC(C(N)=O)CC2)s1`, -0.155%; in that of `CN(Cc1nnc(C2CC2)o1)Cc1ccccc1N1CCOCC1`, -4.09%. Take `O=C(Nc1ccc(N2CCOCC2)nc1)N1CCc2sccc2C1`: the cytotoxicity at 70.5 h worked out at 46.1%. As to `O=C(NCc1ccncc1)Nc1cc(C(F)(F)F)c[nH]c1=O`, the cytotoxicity at 70.5 h was -2.18%. Take `Cc1ccc(Nc2nccc(C3CN(C(C)C)C3)n2)nc1`: the cytotoxicity at 70.5 h is 42.5%. In the case of `O=C(c1ccncc1F)N1CC2CC1(C(=O)N1CCCC1)C2` it was -11.2%.

Take `CN(CCc1ccccn1)C(=O)C(O)c1cc(Cl)cc(Cl)c1` (stereo not drawn): the cytotoxicity at 70.5 h came out at 42.8%. In the case of `CS(=O)(=O)NCC1CCCN(C(=O)COc2ccc(F)cc2)C1` (stereo not drawn) it was -15.8%; in that of `CC(C)c1cc(NCC2(N(C)C)CCCC2)ncn1`, -2.85%; in that of `O=C1NC2(CCN(C(=O)Cc3ccsc3)CC2)CC1c1ccccc1` (stereo not drawn), 0.488%. `CCN(Cc1c(C)nn(C)c1C)C(=O)C1COc2ccccc2C1` (stereo not drawn): the cytotoxicity at 70.5 h is -4.62%.

As for `CC(C)NC(=O)[C@@H]1C[C@H](N)CN1C(=O)C1(c2ccc(Cl)cc2)CCC1`, the cytotoxicity at 70.5 h is -9.78%.

In the case of `CC(=O)NCCCSCCOc1cccc(C#N)c1`, the cytotoxicity at 70.5 h is 2.91%. Take `CC1CCN(CCNC(=O)c2sccc2C2CC2)CC1`: the cytotoxicity at 70.5 h is -5.27%. For the compound `c1ccc2[nH]c(C3CCN(Cc4nnc(C5CC5)o4)CC3)nc2c1`, the cytotoxicity at 70.5 h was -5.81%.

In the case of `Cc1ccc(C(=O)N2CCN(Cc3ccsc3)CC2)n1C`, the cytotoxicity at 70.5 h is -7.84%. On to `OCCN(Cc1nc(-c2ccc3c(c2)OCO3)no1)CC1CC1`, for which the cytotoxicity at 70.5 h was found to be 4.42%. Turning to `Cc1ccccc1C(C)(C)CNC(=O)CCSc1nnnn1C`, the cytotoxicity at 70.5 h was -1.67%.

As to `CN(CCC1CCOCC1)C(=O)C1CCC(=O)N(Cc2ccccn2)C1` (stereo not drawn), the cytotoxicity at 70.5 h turned out to be 13.4%. Regarding `COCCN1CCN(c2ccc3ccc(C(=O)NC4CC4)cn23)CC1`, the cytotoxicity at 70.5 h was -2.48%. To `CCOc1nn(CC)cc1-c1nnc(SCc2ccccn2)n1C` belongs -6.8%; to `CC(C)c1ccc(NS(=O)(=O)CC2=NC(=O)n3cccc3C2=O)cc1`, -18.1%; to `Cc1nc(C)c(C(=O)NCC(c2ccccc2Cl)N2CCOCC2)s1` (stereo not drawn), 19.6%.

As for `CN(C)C(CNC(=O)c1cc2c([nH]c1=O)CCCC2=O)c1ccsc1` (stereo not drawn), the cytotoxicity at 70.5 h is -2.41%.

For `CC(C(=O)O)N1CC2(CCC1=O)CCN(CCc1ccccc1)CC2` (stereo not drawn), the cytotoxicity at 70.5 h was -11%. For the compound `Cc1nnc(C(NS(=O)(=O)c2cc(F)c(C)cc2F)C(C)C)[nH]1` (stereo not drawn), the cytotoxicity at 70.5 h was -5.12%. Regarding `Cc1nc(C)c(C(=O)NCCNC(=O)Cc2ccccc2)s1`, the cytotoxicity at 70.5 h was -1.65%. In the case of `CCOCc1cncc2c1CCN(S(=O)(=O)c1cccc(C)c1)C2` it was -4.1%; in that of `Cc1nsc(N2CCN(CC(=O)NCc3ccc(F)cc3)CC2)n1`, -0.931%. Turning to `Cc1cc(C)nc(CN2CCOC(c3ccc(Cl)cc3)C2)n1` (stereo not drawn), the cytotoxicity at 70.5 h was -1.88%.

Consider `COc1ccc(OC)c(-n2cnnc2C)c1`, for which the cytotoxicity at 70.5 h is -3.42%.

For `CCCN1CCC(NC(=O)c2ccc(F)cc2I)CC1`, the cytotoxicity at 70.5 h is -6.74%. Regarding `COc1cc(C)nc(N2CCN(C(=O)CCc3cscn3)CC2)n1`, the cytotoxicity at 70.5 h was -6.3%. Consider `Clc1ccc(CNc2cnn(CCN3CCOCC3)c2)cc1Cl`, for which the cytotoxicity at 70.5 h is -19.4%. Turning to `Cc1cc(C)n2c(CCCNS(=O)(=O)c3cccs3)nnc2n1`, the cytotoxicity at 70.5 h is -10.2%. `CCN(CC)S(=O)(=O)N1CCCC(c2cccc(C(=O)O)c2)C1` (stereo not drawn): the cytotoxicity at 70.5 h was -6.99%. To `CC(C)(C)c1nc(CN(Cc2cccs2)C2CCS(=O)(=O)C2)cs1` (stereo not drawn) belongs -2.81%.

Take `O=S(=O)(c1ccc(Cl)cc1)N1CCOC[C@H](Oc2cnccn2)C1`: the cytotoxicity at 70.5 h turned out to be 0.0647%. In the case of `CC(CN1CCCC1=O)NC(=O)c1cc(Cl)c2c(c1)OCO2` (stereo not drawn) it was 7.24%. In the case of `CC(NC(=O)c1ccc(CS(C)(=O)=O)o1)c1ccc(F)c(F)c1` (stereo not drawn) it was -3.42%; in that of `CC(C)NC(=O)N1CCC2(CC1)NC(=O)[C@H]1CN(C(=O)N(C)C)C[C@H]12`, -3.94%. In the case of `NC(=O)C1CCCN1C(=O)c1cccc2c1OCO2` (stereo not drawn) it was -1.57%; in that of `Cn1ccnc1C(=O)N1C[C@@H]2CCN(c3cnccn3)C[C@@H]2C1`, -7.28%; in that of `O=C1CN(C(=O)CSC2CCCc3ccccc32)CCN1` (stereo not drawn), 5.33%. With `CCc1noc(C(C)SCCS(C)(=O)=O)n1` (stereo not drawn), the cytotoxicity at 70.5 h is -7.13%. `CN1CCCCC(C2CCN(S(=O)(=O)c3cn(C)cn3)CC2)C1=O` (stereo not drawn): the cytotoxicity at 70.5 h stood at 0.674%. To `Cc1ccc(CCNC(=O)NC2CCN(CC(F)(F)F)C2=O)cn1` (stereo not drawn) belongs -5.39%; to `O=C1CC[C@H]2[C@H](CCN2c2ncccn2)N1c1ccccc1`, -10.3%. For the compound `CC(=O)N1CCc2ncc(CNC(=O)C3CCC3)n2CC1`, the cytotoxicity at 70.5 h was -2.29%. For `CCN(CCCNC(=O)c1ccc(C)[nH]c1=O)S(C)(=O)=O`, the cytotoxicity at 70.5 h is -0.303%. To `CCN1CC(c2ccccc2)CC2(CCN(Cc3ncc[nH]3)CC2)C1` (stereo not drawn) belongs -9.77%; to `CCOc1ccc(S(=O)(=O)Nc2cnc(OC)nc2OC)cc1`, 9.83%; to `CN(CCO)Cc1cc(=O)n2cc(Br)ccc2n1`, -1.02%.

Consider `O[C@H]1[C@H](NCCc2cnccn2)c2ccccc2C12CCNCC2`, for which the cytotoxicity at 70.5 h is -3.75%.

Consider `CC(C)Oc1cc(N2CCN(Cc3ccsc3)C(CCO)C2)nc(N)n1` (stereo not drawn), for which the cytotoxicity at 70.5 h was -17%.

As for `Cc1ccc2cc(CNCCN3CCCC3)c(=O)[nH]c2c1`, the cytotoxicity at 70.5 h was -0.158%. To `CN1CC(NC(=O)Nc2cnn(-c3ccccc3Cl)c2)CCC1=O` (stereo not drawn) belongs -3.58%. In the case of `COc1ccc(C)cc1C1(CNc2cn[nH]c(=O)c2Cl)CCOCC1`, the cytotoxicity at 70.5 h is -5.9%.

As to `CSCc1nc(C(C)(C)NC(=O)OC(C)(C)C)no1`, the cytotoxicity at 70.5 h is -7.03%.

`CCS(=O)(=O)NCC(=O)NC(c1cc(C)sc1C)C(C)C` (stereo not drawn): the cytotoxicity at 70.5 h is -0.761%. For the compound `CCOc1ccccc1-c1noc(CN2CCOC(CN(C)C)C2)n1` (stereo not drawn), the cytotoxicity at 70.5 h was -10.8%. For the compound `COc1ccnc(CN2CCC=C(C(C)NC(C)=O)C2)c1OC` (stereo not drawn), the cytotoxicity at 70.5 h is -3.19%. For the compound `CCS(=O)(=O)N1CCC(c2nnc(CN3CCCC3)n2C2CC2)CC1`, the cytotoxicity at 70.5 h was -11.4%.

As for `c1cc(CN2CCO[C@@H]3CNC[C@@H]32)cs1`, the cytotoxicity at 70.5 h was -2.99%. Regarding `CC(=O)Nn1c(C)cc(CN2CCC(c3ccncc3)CC2)c1C`, the cytotoxicity at 70.5 h was -2.26%. Consider `COc1cccnc1NC(=O)COc1ccc(F)cc1F`, for which the cytotoxicity at 70.5 h was -6.39%. As for `COCCNC(=O)N1CCN(C(=O)c2nsc3ccc(C)cc23)CC1`, the cytotoxicity at 70.5 h is -17.5%. Consider `CCN1CCOC(CNCc2cnc(C(C)(C)C)s2)C1` (stereo not drawn), for which the cytotoxicity at 70.5 h was -5.25%. In the case of `COCCN1CCN(Cc2ccc(C(C)=O)cc2)[C@H]2CS(=O)(=O)C[C@H]21` it was -5.05%. For the compound `CC(Cn1cccn1)NC(=O)NCc1ccc(S(N)(=O)=O)cc1` (stereo not drawn), the cytotoxicity at 70.5 h is -7.93%. As to `Cc1nnc(CN2CCC(Oc3ccc(F)cc3)CC2)o1`, the cytotoxicity at 70.5 h stood at 0.0555%. In the case of `Cc1csc(CN2C[C@@H]3CN(CC4CCOCC4)CCO[C@@H]3C2)n1` it was -6.62%; in that of `CS(=O)(=O)CCN(CC1CCCO1)C1CCCC1` (stereo not drawn), 19.5%; in that of `Cc1ncc(CN2CCCC(c3cc(C(F)(F)F)[nH]n3)C2)s1` (stereo not drawn), -1.49%. To `Cn1cc(C[C@H]2[C@@H](OCC3CC3)CCN2C(=O)c2ccc[nH]2)cn1` belongs 21.2%; to `CN(C)Cc1nnc(C2CCCN(c3nccc4ccccc34)C2)n1C` (stereo not drawn), -12.2%; to `COCCN(C(=O)c1cc(C)no1)c1ccc(C#N)cc1`, -8.51%. With `COc1cccc(-c2noc(-c3ccc(NCCCO)nc3)n2)c1OC`, the cytotoxicity at 70.5 h is 2.28%. As for `Cc1cc(NCC(=O)N(C)CC(F)(F)F)c(C(N)=O)cc1F`, the cytotoxicity at 70.5 h was 1.83%. Turning to `CCC(=O)NCCNC(=O)c1nn(C)c(C)c1Cl`, the cytotoxicity at 70.5 h is -11.9%. In the case of `CC(C)[C@@H]1CN(C(=O)NCc2ccco2)C[C@H]1N(C)C` it was -5.48%.

Turning to `COCc1ccc(C(=O)N2CCC(c3cc4nccnc4[nH]3)CC2)cc1`, the cytotoxicity at 70.5 h was -14.3%.

Turning to `COc1ccccc1[C@@H]1CN(Cc2csc(C(C)=O)c2)C[C@H]1C(=O)O`, the cytotoxicity at 70.5 h was -3.94%.
